# In patent US10105395B2, “Microvesicles (MVs) derived from adult stem cells for use in the therapeutic treatment of a tumor disease” (Fresenius Medical Care Deutschland GmbH, priority 2010, dated 2018):
# Columns and labels:
# Type in all cases: cell-based, human
# [1] = tested on: HepG2 hepatoma cell line; assay: TUNEL apoptosis assay, MVs from HLSCs; conditions: MVs 30 μg/ml; vincristine 100 ng/ml; 24 hours
# Method: Apoptosis was evaluated using the terminal dUTP nickend labeling assay (ApoTag; Oncor, Gaithersburg, Md.). Cells ([…]) were cultured in 96-well plate, suspended in phosphate-buffered saline (PBS) and fixed in 1% paraformaldehyde in PBS, pH 7.4, for 15 minutes at 4° C. followed by pre-cooled ethanol/acetic acid (2:1) for 5 minutes at −20° C. Cells were treated with terminal deoxynucleotide transferase enzyme and incubated in a humidified chamber for 1 hour at 37° C. and then treated with warmed fluorescein isothiocyanate-conjugated antidigoxigenin for 30 minutes at room temperature. After washing, samples were mounted in a medium containing […] of propidium iodide and the cells were analyzed by immunofluorescence.
# The ability of HLSC-derived MVs to induce apoptosis on HepG2 was evaluated. Briefly, HepG2 were seeded at a density of 8,000 cells/well into 96-well plates in DMEM with 10% FCS and apoptosis was induced by culture in the absence of FCS, by treatment with vincristine (100 ng/ml), or doxorubicin (50 ng/ml), two mitotic inhibitors used in cancer chemotherapy, or by MV treatment (30 μg/ml). […] Apoptosis was evaluated using the TUNEL assay analysis at […].
# [2] = tested on: KS cells (Kaposi's sarcoma cells); assay: TUNEL apoptotic assay, MVs from MSCs; conditions: 24 and 48 hours, compared to vehicle alone; doxorubicin 100 ng/ml
# Method: (§1) HepG2, MCF-7, SKOV-3, KS cells, HUVECs or TECs were seeded at 8,000 cells/well into 96-well plated in DMEM (Sigma) with 10% FCS and in the presence of doxorubicin (100 ng/ml, Sigma) or different concentrations of MVs (10 and 30 μg/ml) pre-treated or not with RNase. Apoptosis was assessed by TUNEL assay (ApopTag Oncor, Gaithersburg, Md., USA). After 24 or 48 hours of treatment, the cells were washed with PBS, fixed in 1% paraformaldehyde pH 7.4 for 15 minutes at 4° C., washed twice in PBS and then post-fixed in pre-cooled ethanol-acetic acid 2:1 for 5 minutes at −20° C. The samples were treated with the enzyme terminal deoxynucleotidyl transferase (TdT). The cells were then treated with heated anti-digoxigenin conjugate with fluorescein and incubated for 30 minutes at room temperature. The samples were mounted in medium containing 1 μg/ml of propidium iodide and the cells analyzed by immunofluorescence. The results are expressed as the percentage of green fluorescence emitting cells (apoptotic cells) versus red fluorescence emitting cells (total cells).
# [3] = tested on: HepG2 cells; assay: TUNEL apoptotic assay, MVs from MSCs; conditions: 24 and 48 hours, compared to vehicle alone; doxorubicin 100 ng/ml
# Method: as §1
SMILES,HepG2 apoptosis (TUNEL assay) [1],apoptosis of KS cells (Tunel assay) [2],apoptosis of HepG2 cells (Tunel assay) [3]
CC[C@]1(O)C[C@H]2CN(CCc3c([nH]c4ccccc34)[C@@](C(=O)OC)(c3cc4c(cc3OC)N(C=O)[C@H]3[C@@](O)(C(=O)OC)[C@H](OC(C)=O)[C@]5(CC)C=CCN6CC[C@]43[C@@H]65)C2)C1 [vincristine],induced by vincristine,,
COc1cccc2c1C(=O)c1c(O)c3c(c(O)c1C2=O)C[C@@](O)(C(=O)CO)C[C@@H]3O[C@H]1C[C@H](N)[C@H](O)[C@H](C)O1 [doxorubicin],,apoptosis induced by doxorubicin,apoptosis induced by doxorubicin
